Usually IC50 stands for the concentration that inhibits the measured activity by half. Higher therefore signals weaker potency.

Molecules are shown by their SMILES.

Holding throughout (assay type): cell-based
Assay [1] has as its target T1, human TLR9 (Homo sapiens, UniProt Q9NR96).
T1 construct: host or cells: HEK-Blue cells
T1 sequence (Q9NR96 26-1032): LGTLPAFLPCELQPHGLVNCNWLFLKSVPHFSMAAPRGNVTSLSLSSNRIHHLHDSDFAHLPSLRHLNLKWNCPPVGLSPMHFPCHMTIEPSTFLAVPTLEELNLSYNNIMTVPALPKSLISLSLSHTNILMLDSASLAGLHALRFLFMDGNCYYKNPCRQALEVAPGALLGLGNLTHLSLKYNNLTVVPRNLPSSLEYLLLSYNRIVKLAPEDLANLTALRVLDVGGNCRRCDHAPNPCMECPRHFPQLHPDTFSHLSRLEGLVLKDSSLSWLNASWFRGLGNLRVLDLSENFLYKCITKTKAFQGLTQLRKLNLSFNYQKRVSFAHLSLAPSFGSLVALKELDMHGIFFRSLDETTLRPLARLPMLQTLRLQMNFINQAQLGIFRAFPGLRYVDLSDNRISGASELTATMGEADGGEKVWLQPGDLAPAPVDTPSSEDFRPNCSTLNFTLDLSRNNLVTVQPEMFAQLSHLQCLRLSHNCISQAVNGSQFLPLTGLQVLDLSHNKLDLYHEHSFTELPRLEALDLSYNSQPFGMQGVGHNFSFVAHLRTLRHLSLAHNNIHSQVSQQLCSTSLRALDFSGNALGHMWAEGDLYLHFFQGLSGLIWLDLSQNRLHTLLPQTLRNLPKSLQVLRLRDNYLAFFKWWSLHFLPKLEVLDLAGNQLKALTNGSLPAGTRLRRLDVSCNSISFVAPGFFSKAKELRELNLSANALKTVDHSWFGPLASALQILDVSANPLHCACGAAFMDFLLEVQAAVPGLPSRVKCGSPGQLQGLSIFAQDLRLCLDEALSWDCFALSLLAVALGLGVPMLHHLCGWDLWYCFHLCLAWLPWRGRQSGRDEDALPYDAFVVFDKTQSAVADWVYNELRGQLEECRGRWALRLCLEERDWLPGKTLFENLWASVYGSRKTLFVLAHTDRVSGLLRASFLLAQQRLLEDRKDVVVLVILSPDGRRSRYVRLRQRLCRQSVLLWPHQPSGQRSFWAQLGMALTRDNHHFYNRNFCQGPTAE
The assay is described as follows: TLR9 inhibition reporter assay (HEK-Blue SEAP). Conditions: HEK-Blue cells overexpressing human TLR9, stimulated with ODN2006 5 nM, 22 hour incubation. The essentials:
(§1)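 HEK-Blue cells overexpressing the receptor, with an NF-κB/AP-1-driven SEAP reporter, were pre-treated with compound (0.05 nM to 50 μM) for 30 min at room temperature. Stimulation used gardiquimod 7.5 μM (TLR7), R848 15.9 μM (TLR8) or ODN2006 5 nM (TLR9), followed by 22 h at 37 °C.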

The target of assay [2] is T2, human TLR7 (Homo sapiens, UniProt Q9NYK1).
T2 construct: host or cells: HEK-Blue cells
T2 sequence (Q9NYK1 27-1049): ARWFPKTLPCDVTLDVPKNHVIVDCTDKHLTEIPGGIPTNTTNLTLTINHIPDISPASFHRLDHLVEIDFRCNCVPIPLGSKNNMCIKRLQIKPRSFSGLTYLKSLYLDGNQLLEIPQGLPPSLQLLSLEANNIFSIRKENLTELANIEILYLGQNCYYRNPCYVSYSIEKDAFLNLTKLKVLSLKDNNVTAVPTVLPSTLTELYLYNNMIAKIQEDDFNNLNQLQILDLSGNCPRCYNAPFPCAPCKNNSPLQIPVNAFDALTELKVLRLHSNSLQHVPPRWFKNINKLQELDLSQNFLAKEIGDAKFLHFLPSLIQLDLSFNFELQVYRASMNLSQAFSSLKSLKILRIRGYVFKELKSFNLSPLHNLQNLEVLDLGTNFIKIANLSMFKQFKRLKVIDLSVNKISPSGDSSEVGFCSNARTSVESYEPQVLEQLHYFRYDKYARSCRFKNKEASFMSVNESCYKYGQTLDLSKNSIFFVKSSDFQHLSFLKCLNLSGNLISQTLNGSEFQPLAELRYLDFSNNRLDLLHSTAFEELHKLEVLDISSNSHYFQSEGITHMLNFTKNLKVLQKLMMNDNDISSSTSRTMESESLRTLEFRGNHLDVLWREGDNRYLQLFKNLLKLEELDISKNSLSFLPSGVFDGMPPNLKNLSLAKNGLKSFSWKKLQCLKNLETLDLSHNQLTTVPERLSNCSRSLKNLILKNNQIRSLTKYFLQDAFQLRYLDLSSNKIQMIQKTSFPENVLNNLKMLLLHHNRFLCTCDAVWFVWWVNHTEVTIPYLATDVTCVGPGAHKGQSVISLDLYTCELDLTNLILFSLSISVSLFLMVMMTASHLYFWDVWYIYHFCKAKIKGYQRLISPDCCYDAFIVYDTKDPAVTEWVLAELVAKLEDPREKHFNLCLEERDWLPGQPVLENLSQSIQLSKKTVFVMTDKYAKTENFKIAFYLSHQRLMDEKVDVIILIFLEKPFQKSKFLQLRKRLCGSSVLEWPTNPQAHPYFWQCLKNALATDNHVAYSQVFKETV
The assay can be described thus: TLR7 inhibition reporter assay (HEK-Blue SEAP). Particulars: HEK-Blue cells overexpressing human TLR7, stimulated with gardiquimod 7.5 μM, 22 hour incubation. The gist of the method: as §1

For assay [3], the target named is T3, human TLR8 (Homo sapiens, UniProt Q9NR97).
T3 construct: host or cells: HEK-Blue cells
T3 sequence (Q9NR97 27-1041): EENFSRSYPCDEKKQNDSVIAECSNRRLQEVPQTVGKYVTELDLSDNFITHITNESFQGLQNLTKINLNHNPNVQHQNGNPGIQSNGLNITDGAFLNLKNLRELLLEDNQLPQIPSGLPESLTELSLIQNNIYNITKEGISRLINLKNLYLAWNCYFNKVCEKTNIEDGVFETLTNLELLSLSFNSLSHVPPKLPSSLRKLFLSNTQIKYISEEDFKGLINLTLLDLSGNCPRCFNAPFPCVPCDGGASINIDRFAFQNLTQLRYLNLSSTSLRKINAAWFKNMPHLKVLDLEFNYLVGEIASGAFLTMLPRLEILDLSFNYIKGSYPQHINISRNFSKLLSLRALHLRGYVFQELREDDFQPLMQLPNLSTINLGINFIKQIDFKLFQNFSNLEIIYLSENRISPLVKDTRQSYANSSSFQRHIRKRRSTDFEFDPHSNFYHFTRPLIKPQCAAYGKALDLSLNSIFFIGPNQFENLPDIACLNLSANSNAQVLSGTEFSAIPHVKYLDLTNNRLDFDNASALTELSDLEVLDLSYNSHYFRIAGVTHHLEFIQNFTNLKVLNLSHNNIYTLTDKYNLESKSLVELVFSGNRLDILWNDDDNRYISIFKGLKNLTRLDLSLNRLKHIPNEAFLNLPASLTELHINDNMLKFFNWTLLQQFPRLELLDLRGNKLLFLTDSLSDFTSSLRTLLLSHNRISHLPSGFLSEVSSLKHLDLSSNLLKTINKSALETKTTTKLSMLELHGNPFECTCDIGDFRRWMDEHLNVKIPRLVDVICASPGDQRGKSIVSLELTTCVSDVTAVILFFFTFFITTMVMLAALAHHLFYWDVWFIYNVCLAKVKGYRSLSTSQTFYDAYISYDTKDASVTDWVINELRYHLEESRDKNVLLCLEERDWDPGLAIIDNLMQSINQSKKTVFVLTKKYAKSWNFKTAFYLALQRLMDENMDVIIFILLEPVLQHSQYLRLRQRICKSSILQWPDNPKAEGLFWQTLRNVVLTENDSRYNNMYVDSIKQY
The assay can be described thus: TLR8 inhibition reporter assay (HEK-Blue SEAP). Particulars: HEK-Blue cells overexpressing human TLR8, stimulated with R848 15.9 μM, 22 hour incubation. The gist of the method: as §1
For orientation: In a reporter assay the amount or activity of a reporter protein is the signal.

Regarding `CCc1cc2c(C3CCN(C(=O)CN(C)C)CC3)n[nH]c2cc1-c1cc(C)c2ncnn2c1` [Example 87, 2-(dimethylamino)-1-(4-(5-ethyl-6-(8-methyl-[1,2,4]triazolo[1,5-a]pyridin-6-yl)-1H-indazol-3-yl)piperidin-1-yl)ethan-1-one], the IC50 was determined as 11600 nM in assay [1], 6.3 nM in assay [2] and 0.6 nM in assay [3].

`CCc1cc2c(C3CCN(C4CCOCC4)CC3)n[nH]c2cc1-c1cc(C)c2ncnn2c1` [Example 88, 6-(5-ethyl-3-(1-(tetrahydro-2H-pyran-4-yl)piperidin-4-yl)-1H-indazol-6-yl)-8-methyl-[1,2,4]triazolo[1,5-a]pyridine]: the figures for the 50% inhibitory concentration (IC50) in assay [1], in assay [2] and in assay [3] were 14200 nM, 3.7 nM and 0.2 nM, respectively.

In the case of `CCc1cc2c(C3CCN(C(C)C)CC3)n[nH]c2cc1-c1cc(C)c2ncnn2c1` [Example 90, 6-(5-ethyl-3-(1-isopropylpiperidin-4-yl)-1H-indazol-6-yl)-8-methyl-[1,2,4]triazolo[1,5-a]pyridine], the figures for the IC50 in assay [1], in assay [2] and in assay [3] were 7940 nM, 2.6 nM and 0.1 nM, respectively.

As to `CCc1cc2c(C3CCN(CC(=O)N(C)C)CC3)n[nH]c2cc1-c1cc(C)c2ncnn2c1` [Example 91, 2-(4-(5-ethyl-6-(8-methyl-[1,2,4]triazolo[1,5-a]pyridin-6-yl)-1H-indazol-3-yl)piperidin-1-yl)-N,N-dimethylacetamide], the IC50 was 14500 nM in assay [1], 3.7 nM in assay [2] and 0.4 nM in assay [3].

Take `CCc1cc2c(C3CCN(CC(N)=O)CC3)n[nH]c2cc1-c1cc(C)c2ncnn2c1` [Example 92, 2-(4-(5-ethyl-6-(8-methyl-[1,2,4]triazolo[1,5-a]pyridin-6-yl)-1H-indazol-3-yl)piperidin-1-yl)acetamide]: the IC50 in assay [1] was 17200 nM; in assay [2] it was 2.7 nM; in assay [3] it was 0.2 nM.

As for `CCc1cc2c(C3CCC(NCC(=O)N(C)C)CC3)n[nH]c2cc1-c1cc(C)c2ncnn2c1` (stereo not drawn) [Example 95, 2-((4-(5-ethyl-6-(8-methyl-[1,2,4]triazolo[1,5-a]pyridin-6-yl)-1H-indazol-3-yl)cyclohexyl)amino)-N,N-dimethylacetamide], the IC50 came to 10800 nM in assay [1], 5.4 nM in assay [2] and 0.2 nM in assay [3].

`CCc1cc2c(C3CCC(NCC(=O)N(C)C)CC3)n[nH]c2cc1-c1cc(C)c2ncnn2c1` (stereo not drawn) [Example 96, 2-((4-(5-ethyl-6-(8-methyl-[1,2,4]triazolo[1,5-a]pyridin-6-yl)-1H-indazol-3-yl)cyclohexyl)amino)-N,N-dimethylacetamide]: the IC50 in assay [1] was 16000 nM; in assay [2], 3 nM; in assay [3], 0.2 nM.

For `CCc1cc2c(C3CCN(CC(C)(C)O)CC3)n[nH]c2cc1-c1cc(C)c2ncnn2c1` [Example 101, 1-(4-(5-ethyl-6-(8-methyl-[1,2,4]triazolo[1,5-a]pyridin-6-yl)-1H-indazol-3-yl)piperidin-1-yl)-2-methylpropan-2-ol], the half-maximal inhibitory concentration (IC50) in assay [1] came to 12200 nM; in assay [2], 5.6 nM; in assay [3], 0.2 nM.

Consider `Cc1cc(-c2cc3[nH]nc(C4CCNCC4)c3cc2C(C)C)cn2ncnc12` [Example 102, 6-(5-isopropyl-3-(piperidin-4-yl)-1H-indazol-6-yl)-8-methyl-[1,2,4]triazolo[1,5-a]pyridine], for which the IC50 in assay [1] turned out to be 10900 nM; in assay [2], 1 nM; in assay [3] it was 0.4 nM.

On to `CCc1cc2c(C3CCN(C(=O)CCN(C)C)CC3)n[nH]c2cc1-c1cc(C)c2ncnn2c1` [Example 103, 3-(dimethylamino)-1-(4-(5-ethyl-6-(8-methyl-[1,2,4]triazolo[1,5-a]pyridin-6-yl)-1H-indazol-3-yl)piperidin-1-yl)propan-1-one], for which the IC50 in assay [1] amounted to 12200 nM; in assay [2], 11 nM; in assay [3], 0.9 nM.

As to `CCc1cc2c(C3CCN(CC#N)CC3)n[nH]c2cc1-c1cc(C)c2ncnn2c1` [Example 104, 2-(4-(5-ethyl-6-(8-methyl-[1,2,4]triazolo[1,5-a]pyridin-6-yl)-1H-indazol-3-yl)piperidin-1-yl)acetonitrile], the half-inhibitory concentration (IC50) in assay [1] came to 13600 nM; in assay [2], 6.9 nM; in assay [3], 0.8 nM.

As for `CCc1cc2c(C3CCN(Cc4cn(C)nn4)CC3)n[nH]c2cc1-c1cc(C)c2ncnn2c1` [Example 105, 6-(5-ethyl-3-(1-((1-methyl-1H-1,2,3-triazol-4-yl)methyl)piperidin-4-yl)-1H-indazol-6-yl)-8-methyl-[1,2,4] triazolo[1,5-a]pyridine], the half-inhibitory concentration (IC50) was determined as 8780 nM in assay [1], 5.1 nM in assay [2] and 0.1 nM in assay [3].

The record behind these values is patent US12172995B2, “Substituted indole and indazole compounds” (BRISTOL-MYERS SQUIBB COMPANY, priority 2018, dated 2024).
